Values quoted from earlier work, collected in patent publication US8278324B2, “Oxadiazole derivatives active on sphingosine-1-phosphate (S1P)” (Glaxo Group Limited, priority 2007, dated 2012).

What was measured:
[1] = tested on: circulating lymphocytes; conditions: animals and man
[2] = clinical studies, first 24 hours of treatment

bradycardia [2]: results in bradycardia
SMILES: CCCCCCCCc1ccc(CCC(N)(CO)CO)cc1 [FTY720]
effect on circulating lymphocytes [1]: reduce circulating lymphocytes
